Results published in patent publication US11566057B2, “Long-acting co-agonists of the glucagon and GLP-1 receptors” (Merck Sharp & Dohme Corp., priority 2017, dated 2023).
Numbered stars: 1 amine (or outer) side, 2 acyl side, 3 side chain; on linkers, the order of the positions; unused ones are H or OH. Square brackets hold non-standard residues; d marks the D form. Side chains are listed from the residue outwards. Peptide text beside a SMILES is read from it. * marks the point of attachment. Phe(4-CH2NH2) = NCc1ccc(C[C@H](N)C(=O)O)cc1; C18 diacid = O=C(O)CCCCCCCCCCCCCCCCC(=O)*; αMeW = C[C@](N)(Cc1c[nH]c2ccccc12)C(=O)O; C16 diacid = O=C(O)CCCCCCCCCCCCCCC(=O)*; γGlu = O=C(O)[C@H](CCC(=O)[*:2])N[*:1]; Met(O2) = CS(=O)(=O)CC[C@H](N)C(=O)O; αMeD = C[C@](N)(CC(=O)O)C(=O)O; AEEA = NCCOCCOCC(=O)O; Aib = CC(C)(N)C(=O)O

Molecular target: T1, human GCGR (Homo sapiens, UniProt P47871)
T1 construct: expressed in transfected cells; growth medium holds Blasticidin and Hygromycin
Experiment: cAMP activity assay at the Glucagon receptor (GCGR)
Format: cell-based
Conditions: cells expressing human GCGR, cAMP production; buffer with or without 20% human serum (not stated which); read-out: GCGR EC50 human
Method: Activity of the peptides at the Glucagon receptor (GCGR) and GLP-1 receptor (GLP1R) was measured in a cAMP activity assay.
GCG/GLP-1 receptor co-agonist peptides were dissolved in 100% DMSO (dimethyl sulfoxide) and serially diluted to generate 10 point titrations. The peptide solutions were then transferred into 384-well assay plates (150 nL/well). Assay ready frozen cells expressing human GLP1R or human GCGR were suspended in growth media consisting of DMEM medium (GIBCO®), 10% FBS (GIBCO®), 1×NEAA(GIBCO®), 1×P/S (GIBCO®), 10 ug/mL Blasticidin (GIBCO®) and 200 μg/mL Hygromycin (GIBCO®). […] The cell suspensions (15 μL) were then added to the assay plates containing the peptide solutions (30,000 cells/well for human GCGR; 10,000 cells/well for human GLP1R). The cells were incubated for 1 hour at room temperature in the dark. Production of cAMP was determined using HitHunter™ cAMPXS kits (DiscoverX) following manufacturer protocol. The plates were incubated for overnight at room temperature in the dark. Luminescence was measured using an EnVision Multilabel plate reader (Perkin Elmer). Native GLP-1 and Glucagon (Bachem) are used as control peptides. EC50 values were calculated using uses a 4 parameter logistic fit based on the Levenberg-Marquardt algorithm.

T1 sequence (P47871 26-477): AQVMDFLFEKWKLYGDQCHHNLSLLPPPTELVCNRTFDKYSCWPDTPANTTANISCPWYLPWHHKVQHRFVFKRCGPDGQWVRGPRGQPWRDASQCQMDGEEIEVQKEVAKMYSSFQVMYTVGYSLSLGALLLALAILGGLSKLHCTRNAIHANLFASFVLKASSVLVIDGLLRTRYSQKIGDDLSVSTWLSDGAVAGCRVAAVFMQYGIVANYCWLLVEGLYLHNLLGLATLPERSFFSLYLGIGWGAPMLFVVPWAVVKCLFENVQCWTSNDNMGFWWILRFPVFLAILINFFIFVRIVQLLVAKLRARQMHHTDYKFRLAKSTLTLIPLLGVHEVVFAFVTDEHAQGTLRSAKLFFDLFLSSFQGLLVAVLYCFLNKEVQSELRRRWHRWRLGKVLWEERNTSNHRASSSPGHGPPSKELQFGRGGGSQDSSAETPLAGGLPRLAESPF

| EC50 [nM] | Structure (SMILES) |
| --- | --- |
| > 5 | CC(C)C[C@H](NC(=O)[C@H](Cc1ccc(O)cc1)NC(=O)[C@H](CCCCN)NC(=O)[C@H](CO)NC(=O)[C@H](Cc1ccc(O)cc1)NC(=O)[C@H](CC(=O)O)NC(=O)[C@H](CO)NC(=O)[C@@H](NC(=O)[C@H](Cc1ccccc1)NC(=O)[C@@H](NC(=O)CNC(=O)[C@H](CCC(N)=O)NC(=O)C(C)(C)NC(=O)[C@@H](N)Cc1c[nH]cn1)[C@@H](C)O)[C@@H](C)O)C(=O)N[C@@H](CC(=O)O)C(=O)N[C@@H](CCC(=O)O)C(=O)N[C@@H](CCCNC(=N)N)C(=O)N[C@@H](C)C(=O)N[C@@H](C)C(=O)N[C@@H](CCCCNC(=O)COCCOCCNC(=O)COCCOCCNC(=O)CC[C@H](NC(=O)CCCCCCCCCCCCCCCCC(=O)O)C(=O)O)C(=O)N[C@@H](CC(=O)O)C(=O)N[C@@H](Cc1ccccc1)C(=O)N[C@H](C(=O)N[C@@H](CCC(N)=O)C(=O)N[C@@H](Cc1c[nH]c2ccccc12)C(=O)N[C@@H](CC(C)C)C(=O)N[C@@H](CCS(C)(=O)=O)C(=O)N[C@@](C)(CC(=O)O)C(=O)N[C@H](C(N)=O)[C@@H](C)O)C(C)C [TP613] (H-H[Aib]QGTFTSDYSKYLDERAAK([AEEA-AEEA-γGlu-C18 diacid])DFVQWL[Met(O2)][αMeD]T-NH2) |

Same assay, conditions: ratio of GCGR EC50 to GLP1R EC50

| hGCGR/hGLP1R (hTone) | Structure (SMILES) |
| --- | --- |
| 1.56 | CCCCCCCCCCCCCCCc1cn(CCCC[C@H](NC(=O)[C@H](CC(=O)O)NC(=O)[C@H](CO)NC(=O)[C@@H](NC(=O)[C@H](Cc2ccccc2)NC(=O)[C@@H](NC(=O)CNC(=O)[C@H](CCC(N)=O)NC(=O)[C@@H](CO)NC(=O)[C@@H](N)Cc2c[nH]cn2)[C@@H](C)O)[C@@H](C)O)C(=O)N[C@@H](CO)C(=O)N[C@@H](CCCCN)C(=O)N[C@@H](Cc2ccc(O)cc2)C(=O)N[C@@H](CC(C)C)C(=O)N[C@@H](CC(=O)O)C(=O)N[C@@H](C)C(=O)N[C@@H](CCCNC(=N)N)C(=O)N[C@@H](C)C(=O)N[C@@H](C)C(=O)N[C@@H](CCC(N)=O)C(=O)N[C@@H](CC(=O)O)C(=O)N[C@@H](Cc2ccccc2)C(=O)N[C@H](C(=O)N[C@@H](CCC(N)=O)C(=O)N[C@@H](Cc2c[nH]c3ccccc23)C(=O)N[C@@H](CC(C)C)C(=O)N[C@@H](CC(C)C)C(=O)N[C@@H](CC(=O)O)C(=O)N[C@H](C(N)=O)[C@@H](C)O)C(C)C)nn1 [TP829] |
| 8.6 | CC(C)C[C@H](NC(=O)[C@H](Cc1ccc(O)cc1)NC(=O)[C@H](CCCCN)NC(=O)[C@H](CO)NC(=O)[C@H](Cc1ccc(O)cc1)NC(=O)[C@H](CC(=O)O)NC(=O)[C@H](CO)NC(=O)[C@@H](NC(=O)[C@H](Cc1ccccc1)NC(=O)[C@@H](NC(=O)CNC(=O)[C@H](CCC(N)=O)NC(=O)C(C)(C)NC(=O)[C@@H](N)Cc1c[nH]cn1)[C@@H](C)O)[C@@H](C)O)C(=O)N[C@@H](CC(=O)O)C(=O)N[C@@H](C)C(=O)N[C@@H](CCCNC(=N)N)C(=O)N[C@@H](C)C(=O)N[C@@H](C)C(=O)N[C@@H](CCC(N)=O)C(=O)N[C@@H](CC(=O)O)C(=O)N[C@@H](Cc1ccccc1)C(=O)N[C@H](C(=O)N[C@@H](Cc1ccc(CNC(=O)COCCOCCNC(=O)COCCOCCNC(=O)CC[C@H](NC(=O)CCCCCCCCCCCCCCCCC(=O)O)C(=O)O)cc1)C(=O)N[C@@H](Cc1c[nH]c2ccccc12)C(=O)N[C@@H](CC(C)C)C(=O)N[C@@H](CC(C)C)C(=O)N[C@@H](CC(=O)O)C(=O)N[C@H](C(N)=O)[C@@H](C)O)C(C)C [TP583] (H-H[Aib]QGTFTSDYSKYLDARAAQDFV[Phe(4-CH2NH2)]([AEEA-AEEA-γGlu-C18 diacid])WLLDT-NH2; N-terminus assumed) |
| 1.8 | CC(C)C[C@H](NC(=O)[C@H](Cc1ccc(O)cc1)NC(=O)[C@H](CCCCN)NC(=O)[C@H](CO)NC(=O)[C@H](Cc1ccc(O)cc1)NC(=O)[C@H](CC(=O)O)NC(=O)[C@H](CO)NC(=O)[C@@H](NC(=O)[C@H](Cc1ccccc1)NC(=O)[C@@H](NC(=O)CNC(=O)[C@H](CCC(N)=O)NC(=O)C(C)(C)NC(=O)[C@@H](N)Cc1c[nH]cn1)[C@@H](C)O)[C@@H](C)O)C(=O)N[C@@H](CC(=O)O)C(=O)N[C@@H](C)C(=O)N[C@@H](CCCNC(=N)N)C(=O)N[C@@H](C)C(=O)N[C@@H](C)C(=O)N[C@@H](CCC(N)=O)C(=O)N[C@@H](Cc1ccc(CNC(=O)COCCOCCNC(=O)COCCOCCNC(=O)CC[C@H](NC(=O)CCCCCCCCCCCCCCCCC(=O)O)C(=O)O)cc1)C(=O)N[C@@H](Cc1ccccc1)C(=O)N[C@H](C(=O)N[C@@H](CCC(N)=O)C(=O)N[C@@H](Cc1c[nH]c2ccccc12)C(=O)N[C@@H](CC(C)C)C(=O)N[C@@H](CC(C)C)C(=O)N[C@@H](CC(=O)O)C(=O)N[C@H](C(N)=O)[C@@H](C)O)C(C)C [TP443] (H-H[Aib]QGTFTSDYSKYLDARAAQ[Phe(4-CH2NH2)]([AEEA-AEEA-γGlu-C18 diacid])FVQWLLDT-NH2) |
| 1.2 | CC(C)C[C@H](NC(=O)[C@H](CC(C)C)NC(=O)[C@H](CCCCN)NC(=O)[C@H](CO)NC(=O)[C@H](Cc1ccc(O)cc1)NC(=O)[C@H](CC(=O)O)NC(=O)[C@H](CO)NC(=O)[C@@H](NC(=O)[C@H](Cc1ccccc1)NC(=O)[C@@H](NC(=O)CNC(=O)[C@H](CCC(N)=O)NC(=O)C(C)(C)NC(=O)[C@@H](N)Cc1c[nH]cn1)[C@@H](C)O)[C@@H](C)O)C(=O)N[C@@H](CC(=O)O)C(=O)N[C@@H](C)C(=O)N[C@@H](CCCNC(=N)N)C(=O)N[C@@H](C)C(=O)N[C@@H](C)C(=O)N[C@@H](CCCCNC(=O)COCCOCCNC(=O)COCCOCCNC(=O)CC[C@H](NC(=O)CCCCCCCCCCCCCCCCC(=O)O)C(=O)O)C(=O)N[C@@H](CC(=O)O)C(=O)N[C@@H](Cc1ccccc1)C(=O)N[C@H](C(=O)N[C@@H](CCC(N)=O)C(=O)N[C@@H](Cc1c[nH]c2ccccc12)C(=O)N[C@@H](CC(C)C)C(=O)N[C@@H](CCS(C)(=O)=O)C(=O)N[C@@H](CC(=O)O)C(=O)N[C@H](C(N)=O)[C@@H](C)O)C(C)C [TP597] (H-H[Aib]QGTFTSDYSKLLDARAAK([AEEA-AEEA-γGlu-C18 diacid])DFVQWL[Met(O2)]DT-NH2; N-terminus assumed) |
| 2.3 | CC(C)C[C@H](NC(=O)[C@H](Cc1ccc(O)cc1)NC(=O)[C@H](CCCCN)NC(=O)[C@H](CO)NC(=O)[C@H](Cc1ccc(O)cc1)NC(=O)[C@H](CC(=O)O)NC(=O)[C@H](CO)NC(=O)[C@@H](NC(=O)[C@H](Cc1ccccc1)NC(=O)[C@@H](NC(=O)CNC(=O)[C@H](CCC(N)=O)NC(=O)C(C)(C)NC(=O)[C@@H](N)Cc1c[nH]cn1)[C@@H](C)O)[C@@H](C)O)C(=O)N[C@@H](CC(=O)O)C(=O)N[C@@H](C)C(=O)N[C@@H](CCCNC(=N)N)C(=O)N[C@@H](C)C(=O)N[C@@H](C)C(=O)N[C@@H](CCC(N)=O)C(=O)N[C@@H](CC(=O)O)C(=O)N[C@@H](Cc1ccccc1)C(=O)N[C@H](C(=O)N[C@@H](CCC(N)=O)C(=O)N[C@@H](Cc1c[nH]c2ccccc12)C(=O)N[C@@H](CC(C)C)C(=O)N[C@@H](CCS(C)(=O)=O)C(=O)N[C@@H](Cc1ccc(CNC(=O)COCCOCCNC(=O)COCCOCCNC(=O)CC[C@H](NC(=O)CCCCCCCCCCCCCCCCC(=O)O)C(=O)O)cc1)C(=O)N[C@H](C(N)=O)[C@@H](C)O)C(C)C [TP604] (H-H[Aib]QGTFTSDYSKYLDARAAQDFVQWL[Met(O2)][Phe(4-CH2NH2)]([AEEA-AEEA-γGlu-C18 diacid])T-NH2; N-terminus assumed) |
| 3.0 | CC(C)C[C@H](NC(=O)[C@H](Cc1ccc(O)cc1)NC(=O)[C@H](CCCCN)NC(=O)[C@H](CO)NC(=O)[C@H](Cc1ccc(O)cc1)NC(=O)[C@H](CC(=O)O)NC(=O)[C@H](CO)NC(=O)[C@@H](NC(=O)[C@H](Cc1ccccc1)NC(=O)[C@@H](NC(=O)CNC(=O)[C@H](CCC(N)=O)NC(=O)C(C)(C)NC(=O)[C@@H](N)Cc1c[nH]cn1)[C@@H](C)O)[C@@H](C)O)C(=O)N[C@@H](CC(=O)O)C(=O)N[C@@H](C)C(=O)N[C@@H](CCCNC(=N)N)C(=O)N[C@@H](C)C(=O)N[C@@H](C)C(=O)N[C@@H](CCCCNC(=O)COCCOCCNC(=O)COCCOCCNC(=O)CC[C@H](NC(=O)CCCCCCCCCCCCCCC(=O)O)C(=O)O)C(=O)N[C@@H](CC(=O)O)C(=O)N[C@@H](Cc1ccccc1)C(=O)N[C@H](C(=O)N[C@@H](CCC(N)=O)C(=O)N[C@@](C)(Cc1c[nH]c2ccccc12)C(=O)N[C@@H](CC(C)C)C(=O)N[C@@H](CCS(C)(=O)=O)C(=O)N[C@@H](CC(=O)O)C(=O)N[C@H](C(N)=O)[C@@H](C)O)C(C)C [TP630] (H-H[Aib]QGTFTSDYSKYLDARAAK([AEEA-AEEA-γGlu-C16 diacid])DFVQ[αMeW]L[Met(O2)]DT-NH2; N-terminus assumed) |
| >6 | CC(C)C[C@H](NC(=O)[C@H](Cc1ccc(O)cc1)NC(=O)[C@H](CCCCN)NC(=O)[C@H](CO)NC(=O)[C@H](Cc1ccc(O)cc1)NC(=O)[C@H](CC(=O)O)NC(=O)[C@H](CO)NC(=O)[C@@H](NC(=O)[C@H](Cc1ccccc1)NC(=O)[C@@H](NC(=O)CNC(=O)[C@H](CCC(N)=O)NC(=O)C(C)(C)NC(=O)[C@@H](N)Cc1c[nH]cn1)[C@@H](C)O)[C@@H](C)O)C(=O)N[C@@H](CC(=O)O)C(=O)N[C@@H](CCC(=O)O)C(=O)N[C@@H](CCCNC(=N)N)C(=O)N[C@@H](C)C(=O)N[C@@H](C)C(=O)N[C@@H](CCCCNC(=O)COCCOCCNC(=O)COCCOCCNC(=O)CC[C@H](NC(=O)CCCCCCCCCCCCCCCCC(=O)O)C(=O)O)C(=O)N[C@@H](CC(=O)O)C(=O)N[C@@H](Cc1ccccc1)C(=O)N[C@H](C(=O)N[C@@H](CCC(N)=O)C(=O)N[C@@H](Cc1c[nH]c2ccccc12)C(=O)N[C@@H](CC(C)C)C(=O)N[C@@H](CCS(C)(=O)=O)C(=O)N[C@@](C)(CC(=O)O)C(=O)N[C@H](C(N)=O)[C@@H](C)O)C(C)C [TP613] (H-H[Aib]QGTFTSDYSKYLDERAAK([AEEA-AEEA-γGlu-C18 diacid])DFVQWL[Met(O2)][αMeD]T-NH2) |
